{
  "source": "patent US20060088560A1",
  "about": "“Cosmetic use of mangiferin” (LA[…] BIOLOGIE VEGETALE YVES ROCHER, priority 2004, published 2006)",
  "key": {"[1]": {"tested_on": "MMP1 metalloprotease", "experiment": "Assay of MMP1 metalloprotease (ELISA, per viable cell unit by MTT) in NHDFs after heat stimulation", "assay_type": "cell-based, human", "details": "mangiferin 2.10^-4% w/v, MMP1 per viable cell unit vs reference without mangiferin", "source_text": "In this example, to illustrate the inhibitive action of mangiferin on the expression of MMP enzymes, the quantity of MMP1 enzymes present in normal human dermal fibroblasts (NHDFs) after a heat stress in the presence of mangiferin was compared with the quantity obtained for NHDFs in a reference medium subjected to the same conditions but without the presence of mangiferin.\nThis comparison was made for different conditions of heat treatment (no stress, hot stress, cold stress).\nIn each case, the tested NHDFs were placed in culture then treated under the following conditions:\nThe first day (day D), the NHDFs were seeded to a proportion of 160 000 cells/well/mL in 24-well plates in a normal medium.\nThe following day (day D+1), the culture medium was depleted of serum.\nWhen the test was conducted in the presence of mangiferin, the treatment with mangiferin was complete, i.e. the mangiferin was added to the medium to a content of 2.10^−4 g/100 mL (2.10^−4% w/v) 24 hours before the heat stress, during the heat stress and 24 hours after the onset of heat stress.\nOn the contrary, no mangiferin at all was added to the references.\nAfter these steps, 24 hours after the heat stress, the MMP1 present in the medium was assayed using a quantitative technique of ELISA type, with a commercial Amersham kit. In parallel, the number of viable cells in the medium was determined using the MTT colorimetric test. On the basis of these elements, a MMP1 content was determined per viable cell unit.\nFor each of the heat treatment conditions, a reduction in MMP1 content was observed per viable cell unit in the presence of mangiferin, compared with the content obtained in the references without mangiferin. In this respect, a percentage inhibition of MMP1 expression (Pi) is defined which is calculated using the following formula: Pi(as %)=(Tt−Tm)/Tt in which: • Tm designates the MMP1 content per viable cell unit in the presence of mangiferin; • Tt designates the MMP1 content per viable cell unit for the reference without mangiferin under the same heat treatment conditions."}, "[2]": {"tested_on": "HSP70", "experiment": "Preventive protection: HSP70 immunolabeling in normal human dermal fibroblasts treated with mangiferin before hot heat stress", "assay_type": "cell-based", "method": "(§1) Normal human dermal fibroblasts (NHDFs) are seeded (passage 3) onto glass Labtek culture chambers (8 chambers/slide) to a proportion of 10 000 cells/chamber and incubated for 10 hours in an incubator at 37° C., 5% CO2 and 95% humidity. The culture medium consists of DMEM devoid of phenol red (Invitrogen, ref. 31053028) supplemented with 10% fetal calf serum (FCS) (Invitrogen, ref 16010159, batch 40F1420D), 1% of a solution of non-essential amino acids (Invitrogen, ref 11140035), 100 μg/ml penicillin, 100 U/ml streptomycin, 2 mM L-gluthamine and 1% of a sodium pyruvate solution (Invitrogen, ref. 11360039).\nThe NHDFs are treated for 15 hours with mangiferin solubilized at 0.1% in DMSO, then diluted in the culture medium (DMEM with 1% FCS) to 2.10^−4%. A reference culture medium is also made on the same slide. To validate the study, a slide is treated in the same manner but the cells are not subjected to stress.\nThe cells are subsequently rinsed in Hanks Balanced Saline Solution (HBSS buffer Invitrogen, ref. 14025050) then placed under hot thermal stress conditions: incubation 1 hour at +45° C. in the HBSS solution (0.4 ml per chamber.).\nAfter the stress, the cells are rinsed in the HBSS solution then incubated 8 hours in the culture medium (DMEM with 1% FCS), in an incubator at 37° C., 5% CO2 and 95% humidity.\nThe cells are rinsed in HBSS solution 8 hours after the stress. […]"}, "[3]": {"details": "cited from earlier work"}, "[4]": {"tested_on": "HSP70", "experiment": "Curative protection: HSP70 immunolabeling in normal human dermal fibroblasts treated with mangiferin after hot heat stress", "assay_type": "cell-based", "method": "as §1, with “The” for “Normal human dermal”, “(NHDFS)” for “(NHDFs)”\nThe NHDFs are rinsed in the HBSS solution then incubated 15 hours in the culture medium (DMEM with 1% FCS), in an incubator at 37° C., 5% CO2 and 95% humidity.\nThe cells are subsequently rinsed in an HBSS solution (Invitrogen, ref. 14025050) then placed under conditions of hot thermal stress: incubation 1 hour at +45° C. in the HBSS solution (0.4 ml per chamber).\nAfter the stress, the cells are rinsed in the HBSS solution then treated for 8 hours with the mangiferin solubilized in the DMSO, then diluted in the culture medium (DMEM with 1% FCS) to 2.10^−4%. A reference culture medium is also made on the same slide.\nThe cells are rinsed in an HBSS solution 8 hours after the stress. The culture chambers are removed and the cells left to dry under a laminar flow hood. […]"}},
  "data": [
    {"compound": "O=c1c2cc(O)c(O)cc2oc2cc(O)c([C@@H]3O[C@H](CO)[C@@H](O)[C@H](O)[C@H]3O)c(O)c12", "note": "[mangiferin, C-glucoside of tetrahydroxy-1,3,6,7 xanthone]", "values": [
      {"measurement": "Percentage inhibition Pi of MMP1 expression", "setting": "[1]; Cold heat stress: 10 min at −20° C.", "result": 22, "unit": "%"},
      {"measurement": "Percentage inhibition Pi of MMP1 expression", "setting": "[1]; Hot heat stress: 30 min at +45° C.", "result": 51, "unit": "%"},
      {"measurement": "Percentage inhibition Pi of MMP1 expression", "setting": "[1]; Hot heat stress: 30 min at +50° C.", "result": 40, "unit": "%"},
      {"measurement": "Percentage inhibition Pi of MMP1 expression", "setting": "[1]; Hot heat stress: 1 h at +45° C.", "result": 36, "unit": "%"},
      {"measurement": "Percentage inhibition Pi of MMP1 expression", "setting": "[1]; No heat stress: 1 h at +37° C.", "result": 34, "unit": "%"},
      {"measurement": "Labeling of the HSP70s", "setting": "[2]; NHDFs treated with mangiferin 2.10^-4% for 15 hours before stress (1 hour at +45° C.), read 8 hours after stress, vs untreated stressed cells", "result": "further intensified"},
      {"measurement": "Basic expression of the HSP70s (labeling)", "setting": "[2]; NHDFs, no stress, mangiferin 2.10^-4% for 15 hours", "result": "not modified"},
      {"measurement": "Solubility in alkaline liquids", "setting": "[3]; alkaline liquids (salt formation by phenol OH groups)", "result": "soluble"},
      {"measurement": "Solubility in cold water", "setting": "[3]; cold water", "result": "scarcely soluble"},
      {"measurement": "Labeling of the HSP70s", "setting": "[4]; NHDFs treated with mangiferin 2.10^-4% for 8 hours after stress (1 hour at +45° C.), vs untreated stressed cells", "result": "reduced"},
      {"measurement": "Basic expression of the HSP70s (labeling)", "setting": "[4]; NHDFs, no stress, mangiferin 2.10^-4% for 8 hours", "result": "not modified"}
    ]}
  ]
}
